Data on 1 molecule can be found in patent publication US20090246292A1, “ANTIMICROBIAL FORMULATIONS COMPRISING A QUINONE AND A COPPER SALT” (priority 2006, published 2009).

One assay concerns P. acnes PRP-007. Put plainly: Disc diffusion assay (DDA), also supplemented. The format is cell-based, Propionibacterium acnes. The settings on record: 200 μg per disc. On the technique in general: Agar diffusion results depend on both activity and mobility in agar.
For another assay, the system named is P. acnes PRP-017. Nature of the assay: Disc diffusion assay (DDA), also supplemented. The format is cell-based, Propionibacterium acnes. The settings on record: 200 μg per disc.

Procedure for P. acnes PRP-007: The propionibacteria were cultured and maintained on Wilkins-Chalgren Anaerobe Medium (agar and broth) at pH 6.0; all cultures were incubated anaerobically at 37° C. for 72 hours.
A sterile paper disc was impregnated with a sample of the test compound in a suitable solvent and 30 minutes allowed for the solvents to evaporate (where possible). The disc was then placed on an agar plate onto which the test micro-organism had been inoculated. The plate was then incubated under the conditions described above, following which it was examined visually for signs of bacterial growth. […] The diameter of this zone of “inhibition” was measured using a ProtoCOL™ automated zone sizer (Synbiosis, Cambridge, UK).
For assays using Propionibacterium spp. strains the supplements used in the examples below were lipid (either Tween™ 80 or triolein, both at 1% v/v) and sodium chloride (100 mM).

On to `O.O.O.O.O.O=S(=O)([O-])[O-].[Cu+2]` [Copper (II) sulphate pentahydrate], for which the entries for the “DDA + salt” value in the assay with P. acnes PRP-007 and in the assay on P. acnes PRP-017 were 55.03 mm and 56.85 mm, respectively. Besides, the “DDA + lipid” value is reported as 48.95 mm in the assay with P. acnes PRP-007 (1% (v/v) triolein) and 55.03 mm with P. acnes PRP-017 (1% (v/v) triolein). Besides, the DDA came to 56.55 mm in the assay with P. acnes PRP-007 (single replicate), 40.35 mm with P. acnes PRP-007 (Table 12 series), 51.38 mm with P. acnes PRP-017 (single replicate) and 46.31 mm in the assay on P. acnes PRP-017 (Table 12 series).
